# Assay results taken from publication PMC5712521, “Dendrogenin A drives LXR to trigger lethal autophagy in cancers” (Nature Communications, 2017).
# Where two headings read alike, the source gives them in different places.
# Columns and labels:
# [1] = biological target: T1, 3β-hydroxysterol-Δ8,7-isomerase (D8D7I) (Homo sapiens, UniProt Q15125); test: D8D7I inhibition shown by Δ8-sterol accumulation in melanoma cells; type: cell-based; conditions: B16F10 and SKMEL-28, 2.5 µM DDA, 48 h; accumulation of zymostenol and 8-dehydrocholesterol
# T1 construct: endogenous in cells; host or cells: B16F10 (murine) and SKMEL-28 (human) melanoma cells
# T1 sequence (Q15125 whole entry, stated change not applied): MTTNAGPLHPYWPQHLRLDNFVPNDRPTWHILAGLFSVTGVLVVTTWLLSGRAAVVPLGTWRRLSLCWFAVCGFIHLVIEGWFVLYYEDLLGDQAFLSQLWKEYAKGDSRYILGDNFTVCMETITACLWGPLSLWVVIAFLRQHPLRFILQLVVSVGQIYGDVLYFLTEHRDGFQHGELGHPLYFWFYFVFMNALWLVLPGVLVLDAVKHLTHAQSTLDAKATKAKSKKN
# Protocol: Sterols in cell homogenates were extracted with a solvent mixture containing chloroform/methanol 2/1 (v/v) spiked with epicoprostanol as the internal standard. Lipids were partitioned in chloroform after the addition of saline and saponified by methanolic potassium hydroxide (0.5 N, 60 °C, 15 min). The fatty acids released were methylated with BF3-methanol (12%, 60 °C, 15 min) to not interfere with the chromatography of sterols. The sterols were re-extracted in hexane and silylated, as described previously. […] Sterols were identified by the fragmentogram in the scanning mode and quantified by selective monitoring of the specific ions after normalization with the internal standard epicoprostanol and calibration with weighed standards.
# Supplementary Fig. 2. DD A induce d th e accum ulation of cholestero l precursors in m elanom a cells. a Quantification of sterol accum ulation in cells after 48 h tr eatm ent with or without 2.5 µM DDA. […]
# accum ulation. e Representative EM im ages of cells treated for 24 h with solvent vehicle (panels 1- 2) or 2.5 µM DDA (panels 3- 4). […] Cells were treated with solvent vehicle (control) or 2.5 µM DDA for 24 h with or without 1 µ M Baf A1, the n stained with MDC and obser ved by fluorescence m icroscopy. […]
# [2] = DDA concentrations in spleen and bone marrow; type: in vivo, NSG mice; conditions: NSG, mouse, ip, daily i.p. 20 mg/kg for 21 days
# Protocol: Bars represent S.E.M. ( ***P<0.001, **P<0.01, t test).
# (also on this page, place not known: plasma times treatment mice administration plasma times treatment mice administration mg/kg mg/kg Summary pharmacokinetic parameters mice. were measured daily administration mg/kg days. (***P<0.001, mg/kg DDA in plasma (p.o.) (p.o.) DDA in plasma (µM) i.p. i.v. (mg/kg) 20 T1/2 0.1 T1/2 elimination 1.0 T1/2 - Bioavailability (%EP) (µM) 370 Tmax 0.002 marrow 0.01 0.1 1 10 Control DDA DDA level (µM) ***)
structure (smiles),measurement,setting,value
"CC(C)CCC[C@@H](C)[C@H]1CC[C@H]2[C@@H]3C[C@@H](NCCc4cnc[nH]4)[C@@]4(O)C[C@@H](O)CC[C@]4(C)[C@H]3CC[C@]12C [DDA, Dendrogenin A]",D8D7I inhibition,[1],inhibited D8D7I
same,concentration at 21 days,"[2]; bone marrow, read-out: DDA concentration in the bone marrow",3480 ± 530 nM
same,concentration at 21 days,"[2]; spleen, read-out: DDA concentration in the spleen",1320 ± 30 nM
